This is an account of results in patent US20060263895A1, “Method for monitoring the stereoselectivity and relative rate of organic chemical reactions” (priority 2005, published 2006).

The nature of assay [1]: Double cuvette-ISES (in situ enzymatic screening) of Co(III)-salen mediated HKR of (±)-propylene oxide. The following applies: catalyst tested at 0.05 mol %; bilayer. The method, boiled down: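 Co(III)-salen catalysts (0.25 mol %) in CHCl3 with (±)-propylene oxide (7.2 M in organic layer), overlaid with aqueous reporting layers in 50 mM sodium pyrophosphate, final pH 8.6. Reporters: 0.35 U HLADH/7.2 mM NAD+ ((S)-diol) or 0.35 U TBADH/2.2 mM NADP+ ((R)-diol). A340 increase gives enantioselectivity and relative rate estimates.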

Assay [2] is described as follows: HKR of (±)-propylene oxide under standard neat 'Jacobsen conditions' (NMR conversion, chiral HPLC ee). The following applies: + = (S), − = (R). The method, boiled down: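 Co(III)-salen catalyst (0.25 mol %) with neat (±)-propylene oxide and water (0.55 equiv.), added at 0° C., then stirred at room temperature, usually 3 h (longer if <5% conversion). Conversion by 1H NMR; diol isolated, derivatized to bis(p-bromobenzoate), ee by chiral HPLC.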

The nature of assay [3]: HKR of (±)-hexene oxide under neat conditions. The following applies: in 30 min, 2.0 mol % catalyst, 25° C. On the procedure: Co(III)-salen (acetate) catalysts were evaluated for HKR of (±)-hexene oxide, under neat conditions, similar to those described by Jacobsen and co-workers (Schaus, S. E.; Brandes, B. D.; Larrow, J. F.; Tokunaga, M.; Hansen, K. B.; Gould, A. E.; Furrow, M. E.; Jacobsen, E. N. J. Am. Chem. Soc. 2002, 124, 1307-1315). Reactions were stopped after 0.5 h, to obtain the enantiopurity of the 1,2-hexenediol produced at relatively early reaction times, for comparison with biphasic ISES predictions.
A typical procedure follows: To the Co(III)-salen catalyst derived from 1e (16.6 mg, 23.2 μmol, 2.0 mol %) at rt was added (±)-hexene oxide (116 mg, 1.16 mmols). The mixture was cooled to 0° C. Then water (11.4 μL, 0.64 mmols, 0.55 equiv.) was added and the flask was capped tightly and stirred 25° C. for 30 min. The progress of the reaction was estimated by ^1H NMR, the reaction mixture was cooled to 0° C., an aliquot was then withdrawn and dissolved in CDCl3 at 0° C. bath. After distilling over the unreacted epoxide, the diol product was collected, and then itself distilled again by Kugelrohr. When the reaction conversion was more than 50% in 30 min, 15 min reaction time was used (for catalyst 1e) to get the product diol.
To determine ee, the isolated diol was derivatized using p-bromobenzoyl imidazole (2.2 equiv.) in THF in the presence of NaH (4 equiv.) at rt for 5 min. […]

For “N,N′-Bis(3′,5′-diiodosalicylidene)-[1R-(1α,2α,5α)]-2-amino-7,7-dimethyl-2-bicyclo[3.3.1]heptaneethanamine [Salen 1e]”, the “% ee of the 1,2-propanediol product, as predicted by double-cuvette ISES (upper number)” value in assay [1] is “+47 % ee”. Further, in assay [2] (loading 0.25 mol %, reaction stopped at the time given (mostly 3 h)), the “% ee (HPLC)” value was “+28 (S) % ee”. Besides, the “% ee of the 1,2-propanediol product, as observed by chiral HPLC (lower number)” value in assay [2] (neat propylene oxide, 0.55 equiv. H2O, 0.25 mol % catalyst, 3 h reaction time) is “+28 % ee”. For the same substance, the reaction conversion result in assay [3] is given as “more than 50%”.
